Counter-ions that a name gives are not always drawn.
Key:
Assay in all cases: PI3K enzyme inhibitory activity in the cell free assay (ADP-Glo Kinase Assay)
Format in all cases: biochemical
PI3Kα = molecular target: T1, PI3Kα (Homo sapiens, UniProt P42336); details: human recombinant PI3Kα, ATP 50 μM; read-out: PI3K alpha inhibition
T1 construct: purchased Millipore Ltd (Billerica, Mass.)

PI3Kγ = molecular target: T2, PI3Kγ (Homo sapiens, UniProt P48736); details: human recombinant PI3Kγ, ATP 30 μM; read-out: PI3K gamma inhibition
T2 construct: purchased Millipore Ltd (Billerica, Mass.)

PI3Kβ = molecular target: T3, PI3Kβ (Homo sapiens, UniProt P42338); details: human recombinant PI3Kβ, ATP 100 μM; read-out: PI3K beta inhibition
T3 construct: purchased Millipore Ltd (Billerica, Mass.)

PI3Kδ = molecular target: T4, PI3Kδ (Homo sapiens, UniProt O00329); details: human recombinant PI3Kδ, ATP 80 μM; read-out: PI3K delta inhibition
T4 construct: purchased Millipore Ltd (Billerica, Mass.)
T4 sequence (O00329 1-1044): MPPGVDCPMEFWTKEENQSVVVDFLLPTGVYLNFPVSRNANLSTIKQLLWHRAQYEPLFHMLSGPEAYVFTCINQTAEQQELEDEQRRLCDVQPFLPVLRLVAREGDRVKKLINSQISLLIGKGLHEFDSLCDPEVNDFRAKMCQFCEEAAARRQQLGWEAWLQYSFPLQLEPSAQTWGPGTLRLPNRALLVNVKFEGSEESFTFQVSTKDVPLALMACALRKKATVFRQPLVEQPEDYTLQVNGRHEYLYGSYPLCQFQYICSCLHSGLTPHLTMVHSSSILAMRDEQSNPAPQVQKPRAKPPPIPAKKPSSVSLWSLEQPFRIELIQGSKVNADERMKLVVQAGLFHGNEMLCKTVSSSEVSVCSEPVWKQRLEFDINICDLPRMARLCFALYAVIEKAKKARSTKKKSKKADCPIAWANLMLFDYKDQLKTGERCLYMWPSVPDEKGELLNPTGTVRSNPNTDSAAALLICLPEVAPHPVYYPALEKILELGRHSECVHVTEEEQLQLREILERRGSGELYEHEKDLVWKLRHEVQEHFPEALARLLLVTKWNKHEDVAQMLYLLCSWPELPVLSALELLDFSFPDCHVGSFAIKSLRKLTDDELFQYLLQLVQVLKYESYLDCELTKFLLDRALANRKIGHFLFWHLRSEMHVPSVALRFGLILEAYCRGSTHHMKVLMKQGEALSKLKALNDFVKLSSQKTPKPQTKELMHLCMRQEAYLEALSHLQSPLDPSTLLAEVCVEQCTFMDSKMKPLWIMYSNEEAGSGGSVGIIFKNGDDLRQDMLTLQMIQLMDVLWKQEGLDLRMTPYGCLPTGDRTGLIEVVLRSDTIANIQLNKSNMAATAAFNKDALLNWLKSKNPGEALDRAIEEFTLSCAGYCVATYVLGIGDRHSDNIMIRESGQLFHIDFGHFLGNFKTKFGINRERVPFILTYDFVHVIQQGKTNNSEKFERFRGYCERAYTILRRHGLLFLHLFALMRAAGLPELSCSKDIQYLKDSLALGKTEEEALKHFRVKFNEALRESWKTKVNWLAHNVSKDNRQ

T1 sequence (P42336 whole entry): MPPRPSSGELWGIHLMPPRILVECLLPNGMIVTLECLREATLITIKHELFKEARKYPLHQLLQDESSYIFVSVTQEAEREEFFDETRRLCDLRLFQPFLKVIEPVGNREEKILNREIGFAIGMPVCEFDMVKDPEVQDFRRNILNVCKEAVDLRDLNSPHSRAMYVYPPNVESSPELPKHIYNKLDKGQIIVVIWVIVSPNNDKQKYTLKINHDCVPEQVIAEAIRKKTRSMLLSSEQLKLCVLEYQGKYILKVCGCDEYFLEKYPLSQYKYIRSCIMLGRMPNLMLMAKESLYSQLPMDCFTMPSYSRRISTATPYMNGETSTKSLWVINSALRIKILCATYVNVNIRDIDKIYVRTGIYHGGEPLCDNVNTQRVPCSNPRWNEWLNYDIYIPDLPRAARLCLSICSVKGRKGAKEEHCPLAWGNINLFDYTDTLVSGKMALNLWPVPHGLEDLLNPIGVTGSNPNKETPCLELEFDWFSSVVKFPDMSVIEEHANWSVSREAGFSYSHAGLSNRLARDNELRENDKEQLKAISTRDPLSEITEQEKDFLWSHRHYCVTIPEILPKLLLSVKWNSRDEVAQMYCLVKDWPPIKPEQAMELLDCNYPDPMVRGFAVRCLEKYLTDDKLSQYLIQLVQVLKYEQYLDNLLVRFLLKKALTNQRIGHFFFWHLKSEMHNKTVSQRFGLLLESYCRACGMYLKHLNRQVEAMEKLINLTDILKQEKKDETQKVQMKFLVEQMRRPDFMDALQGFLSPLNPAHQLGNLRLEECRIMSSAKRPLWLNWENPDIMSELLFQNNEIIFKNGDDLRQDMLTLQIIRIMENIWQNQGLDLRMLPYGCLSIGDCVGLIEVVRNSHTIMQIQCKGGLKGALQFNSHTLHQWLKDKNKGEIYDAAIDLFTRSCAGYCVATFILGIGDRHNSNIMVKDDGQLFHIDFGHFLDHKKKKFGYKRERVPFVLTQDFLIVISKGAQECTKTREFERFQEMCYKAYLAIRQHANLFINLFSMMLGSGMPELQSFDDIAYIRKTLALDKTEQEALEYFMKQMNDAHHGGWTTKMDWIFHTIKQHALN
T2 sequence (P48736 whole entry): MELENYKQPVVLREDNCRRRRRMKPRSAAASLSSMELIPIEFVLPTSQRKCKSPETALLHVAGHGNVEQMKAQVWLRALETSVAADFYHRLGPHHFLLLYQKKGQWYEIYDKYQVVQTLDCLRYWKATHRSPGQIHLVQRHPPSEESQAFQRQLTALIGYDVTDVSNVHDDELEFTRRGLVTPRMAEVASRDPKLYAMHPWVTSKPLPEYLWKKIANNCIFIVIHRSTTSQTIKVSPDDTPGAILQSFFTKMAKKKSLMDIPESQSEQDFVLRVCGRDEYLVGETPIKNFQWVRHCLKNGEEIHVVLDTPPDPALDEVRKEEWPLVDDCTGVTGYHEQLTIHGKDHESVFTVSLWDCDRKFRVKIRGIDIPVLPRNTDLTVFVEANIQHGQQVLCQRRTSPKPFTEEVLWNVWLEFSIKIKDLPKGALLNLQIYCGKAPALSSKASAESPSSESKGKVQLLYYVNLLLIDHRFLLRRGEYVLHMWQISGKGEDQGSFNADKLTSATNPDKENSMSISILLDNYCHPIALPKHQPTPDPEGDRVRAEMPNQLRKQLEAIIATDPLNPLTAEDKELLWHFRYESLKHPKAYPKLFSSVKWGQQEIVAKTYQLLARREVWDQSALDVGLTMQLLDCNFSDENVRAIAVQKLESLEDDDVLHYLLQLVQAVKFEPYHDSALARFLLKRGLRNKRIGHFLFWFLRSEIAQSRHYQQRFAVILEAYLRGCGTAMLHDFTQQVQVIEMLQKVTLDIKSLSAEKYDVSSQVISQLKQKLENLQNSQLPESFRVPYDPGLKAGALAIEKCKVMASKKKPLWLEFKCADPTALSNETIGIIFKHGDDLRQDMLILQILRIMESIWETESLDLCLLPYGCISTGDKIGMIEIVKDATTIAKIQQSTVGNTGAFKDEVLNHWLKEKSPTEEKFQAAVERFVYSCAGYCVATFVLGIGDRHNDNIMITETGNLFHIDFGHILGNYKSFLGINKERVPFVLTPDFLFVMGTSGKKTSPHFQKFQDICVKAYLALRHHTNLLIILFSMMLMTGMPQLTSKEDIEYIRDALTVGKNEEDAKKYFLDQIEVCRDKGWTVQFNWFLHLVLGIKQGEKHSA
T3 sequence (P42338 whole entry): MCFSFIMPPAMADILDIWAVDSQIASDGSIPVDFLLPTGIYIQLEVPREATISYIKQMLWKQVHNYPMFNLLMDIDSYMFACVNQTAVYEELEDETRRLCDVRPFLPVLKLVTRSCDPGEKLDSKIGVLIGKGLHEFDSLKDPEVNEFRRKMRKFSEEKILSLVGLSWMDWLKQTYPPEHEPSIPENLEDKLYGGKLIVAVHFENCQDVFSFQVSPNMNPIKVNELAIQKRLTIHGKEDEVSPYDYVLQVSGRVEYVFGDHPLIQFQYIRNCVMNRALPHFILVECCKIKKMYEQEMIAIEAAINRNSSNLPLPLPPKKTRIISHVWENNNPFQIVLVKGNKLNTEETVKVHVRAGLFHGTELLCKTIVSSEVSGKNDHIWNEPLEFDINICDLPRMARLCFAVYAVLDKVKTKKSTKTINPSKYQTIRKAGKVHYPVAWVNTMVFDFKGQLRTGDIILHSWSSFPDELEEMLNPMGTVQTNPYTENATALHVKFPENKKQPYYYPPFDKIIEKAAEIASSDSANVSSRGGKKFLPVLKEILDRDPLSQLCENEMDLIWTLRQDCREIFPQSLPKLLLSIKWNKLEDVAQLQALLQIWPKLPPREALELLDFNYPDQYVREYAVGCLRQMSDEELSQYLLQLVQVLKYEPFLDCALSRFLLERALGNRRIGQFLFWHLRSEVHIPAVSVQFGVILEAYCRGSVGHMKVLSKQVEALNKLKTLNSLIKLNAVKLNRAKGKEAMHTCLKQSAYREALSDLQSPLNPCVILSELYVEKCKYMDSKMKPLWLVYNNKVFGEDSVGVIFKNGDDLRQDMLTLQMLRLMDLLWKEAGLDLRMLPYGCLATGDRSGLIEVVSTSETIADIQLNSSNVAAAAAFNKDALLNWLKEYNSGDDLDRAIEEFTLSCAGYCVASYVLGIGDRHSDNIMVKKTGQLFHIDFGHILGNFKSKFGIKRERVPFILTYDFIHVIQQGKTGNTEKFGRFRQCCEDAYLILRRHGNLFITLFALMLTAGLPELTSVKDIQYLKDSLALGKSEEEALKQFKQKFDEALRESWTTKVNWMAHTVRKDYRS

Q: With `CC(c1oc(=O)c2ccccc2c1C1=CCCN(C2CNC2)C1)n1nc(-c2cc(O)cc(F)c2)c2c(N)ncnc21` (centres unmarked) [Example 173, 3-(1-(4-amino-3-(3-fluoro-5-hydroxyphenyl)-1H-pyrazolo[3,4-d]pyrimidin-1-yl)ethyl)-4-(1-(azetidin-3-yl)-1,2,5,6-tetrahydropyridin-3-yl)-1H-isochromen-1-one dihydrochloride] as the compound, how does the IC50 (PI3Kα) read?
A: 10 to 1000 nM

Q: And the IC50 (PI3Kγ)?
A: 10 to 1000 nM

Q: What about the IC50 (PI3Kβ) of the same compound?
A: 10 to 1000 nM

Q: And the IC50 (PI3Kδ)?
A: < 10 nM

Q: What does the source list for `CC(C)N1CCC=C(c2c(C(C)n3nc(-c4cc(O)cc(F)c4)c4c(N)ncnc43)oc(=O)c3ccccc23)C1` (centres unmarked) [Example 174, 3-(1-(4-amino-3-(3-fluoro-5-hydroxyphenyl)-1H-pyrazolo[3,4-d]pyrimidin-1-yl)ethyl)-4-(1-isopropyl-1,2,5,6-tetrahydropyridin-3-yl)-1H-isochromen-1-one hydrochloride]?
A: IC50 (PI3Kα): 10 to 1000 nM; IC50 (PI3Kγ): 10 to 1000 nM; IC50 (PI3Kβ): 10 to 1000 nM; IC50 (PI3Kδ): 10 to 1000 nM

Q: For `CC(c1oc(=O)c2ccccc2c1C1=CCN(C)CC1)n1nc(-c2cncc(O)c2)c2c(N)ncnc21` (centres unmarked) [Example 175, 3-(1-(4-amino-3-(5-hydroxypyridin-3-yl)-1H-pyrazolo[3,4-d]pyrimidin-1-yl)ethyl)-4-(1-methyl-1,2,3,6-tetrahydropyridin-4-yl)-1H-isochromen-1-one hydrochloride], which IC50 (PI3Kα) is on record?
A: 10 to 1000 nM

Q: And the IC50 (PI3Kγ)?
A: 10 to 1000 nM

Q: What about the IC50 (PI3Kβ) of the same compound?
A: < 10 nM

Q: What about the IC50 (PI3Kδ) of the same compound?
A: < 10 nM

Q: How did the IC50 (PI3Kα) turn out when `CC(c1oc(=O)c2ccccc2c1-c1ccccc1)n1nc(I)c2c(N)ncnc21` (centres unmarked) [Int D2, 3-(1-(4-Amino-3-iodo-1H-pyrazolo[3,4-d]pyrimidin-1-yl)ethyl)-4-phenyl-1H-isochromen-1-one] was run?
A: > 1000 nM

Q: What about the IC50 (PI3Kγ) of the same compound?
A: 10 to 1000 nM

Q: What about the IC50 (PI3Kβ) of the same compound?
A: 10 to 1000 nM

Q: What about the IC50 (PI3Kδ) of the same compound?
A: < 10 nM

Q: For `Cc1cccc(-c2c(C(C)n3nc(I)c4c(N)ncnc43)oc(=O)c3ccccc23)c1` (centres unmarked) [Int D3, 3-(1-(4-Amino-3-iodo-1H-pyrazolo[3,4-d]pyrimidin-1-yl)ethyl)-4-m-tolyl-1H-isochromen-1-one], which IC50 (PI3Kα) is on record?
A: > 1000 nM

Q: And the IC50 (PI3Kγ)?
A: 10 to 1000 nM

Q: What about the IC50 (PI3Kβ) of the same compound?
A: > 1000 nM

Q: And the IC50 (PI3Kδ)?
A: < 10 nM
